Measured values from BindingDB's records for patent US10301305 (Mutabilis, 2019).

Assays:
Assay in all cases: in vitro DltA activity assay
[1] = target: T1, D-alanine--D-alanyl carrier protein ligase (Enterococcus faecium (strain ATCC BAA-472 / TX0016 / DO), UniProt Q3XZT7)
T1 sequence (Q3XZT7 whole entry): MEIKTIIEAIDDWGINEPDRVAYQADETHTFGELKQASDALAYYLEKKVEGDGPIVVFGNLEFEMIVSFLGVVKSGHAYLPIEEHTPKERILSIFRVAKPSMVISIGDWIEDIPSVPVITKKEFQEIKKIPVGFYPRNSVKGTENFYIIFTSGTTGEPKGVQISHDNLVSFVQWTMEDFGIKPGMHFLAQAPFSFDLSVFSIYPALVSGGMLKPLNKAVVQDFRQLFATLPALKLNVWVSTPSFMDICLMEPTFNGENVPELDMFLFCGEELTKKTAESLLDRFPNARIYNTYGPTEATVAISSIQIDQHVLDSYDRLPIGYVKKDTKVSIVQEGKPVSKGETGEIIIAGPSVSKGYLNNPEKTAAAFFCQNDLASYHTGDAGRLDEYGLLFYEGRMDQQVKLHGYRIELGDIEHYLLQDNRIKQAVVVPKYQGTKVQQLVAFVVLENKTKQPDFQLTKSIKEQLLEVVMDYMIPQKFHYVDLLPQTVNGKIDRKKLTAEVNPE
Protocol: (§1) The assay buffer AB contained 50 mM Hepes pH8.0, 10 mM MgCl2, 50 mM KCl, 0.012% Triton-X100, 10 mM DTT and 100 nM Myelin-basic protein. The following components were added in a white polystyrene Costar plate up to a final volume of 30 μL: 3 μL DMSO, or inhibitor dissolved in DMSO and 27 μL DltA enzyme in AB. After 30 min of pre-incubation at room temperature, 30 μL of Substrates mix in AB were added in each well to a final volume of 60 μL. This reaction mixture was then composed of DltA (produced in house from S. aureus, E. faecalis, E. faecium and S. agalactiae), 0.5 mM D-Alanine (Sigma), 0.5-5 μM ATP (Sigma) and 0.05 u/ml inorganic pyrophosphatase (Sigma) in assay buffer. After typically 1-2 hours of incubation at room temperature (conversion rate around 30%), 30 μL of the revelation mix were added to a final volume of 90 μL, including the following constituents at the respective final concentrations: 10000 u/ml luciferase (Sigma), 30 μM D-luciferin (Sigma), 100 μM N-acetylcysteamine (Aldrich). Luminescence intensity was immediately measured on a Fluostar Optima (BMG) (excitation 360 nm, emission 520 nm) and converted into inhibition percentages. For IC50 determinations (Inhibitory Concentration 50%) the inhibitor was added at 6 to 10 different concentrations and the related inhibitions were fitted to a classical Langmuir equilibrium model using XLFIT (IDBS).

[2] = target: T2, D-alanine--D-alanyl carrier protein ligase (Enterococcus faecalis (strain ATCC 700802 / V583), UniProt Q830N0)
T2 sequence (Q830N0 whole entry): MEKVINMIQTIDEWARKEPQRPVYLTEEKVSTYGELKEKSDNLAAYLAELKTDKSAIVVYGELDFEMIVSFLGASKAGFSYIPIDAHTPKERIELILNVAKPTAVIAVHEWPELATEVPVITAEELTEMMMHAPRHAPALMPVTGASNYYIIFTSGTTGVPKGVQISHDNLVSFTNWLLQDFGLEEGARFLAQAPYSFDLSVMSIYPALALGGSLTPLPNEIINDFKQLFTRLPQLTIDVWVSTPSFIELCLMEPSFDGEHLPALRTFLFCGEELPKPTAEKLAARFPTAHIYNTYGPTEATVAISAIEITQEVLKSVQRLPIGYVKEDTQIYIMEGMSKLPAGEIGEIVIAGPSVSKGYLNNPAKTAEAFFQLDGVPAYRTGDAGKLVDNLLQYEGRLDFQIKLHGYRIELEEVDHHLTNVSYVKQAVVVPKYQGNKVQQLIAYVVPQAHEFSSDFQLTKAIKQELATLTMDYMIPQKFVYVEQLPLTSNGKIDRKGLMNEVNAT
Protocol: as §1

[3] = target: T3, D-alanine--D-alanyl carrier protein ligase (Staphylococcus aureus, UniProt Q2FZW6)
T3 construct: gene dltA
Protocol: as §1

T3 sequence (Q2FZW6 whole entry, looked up): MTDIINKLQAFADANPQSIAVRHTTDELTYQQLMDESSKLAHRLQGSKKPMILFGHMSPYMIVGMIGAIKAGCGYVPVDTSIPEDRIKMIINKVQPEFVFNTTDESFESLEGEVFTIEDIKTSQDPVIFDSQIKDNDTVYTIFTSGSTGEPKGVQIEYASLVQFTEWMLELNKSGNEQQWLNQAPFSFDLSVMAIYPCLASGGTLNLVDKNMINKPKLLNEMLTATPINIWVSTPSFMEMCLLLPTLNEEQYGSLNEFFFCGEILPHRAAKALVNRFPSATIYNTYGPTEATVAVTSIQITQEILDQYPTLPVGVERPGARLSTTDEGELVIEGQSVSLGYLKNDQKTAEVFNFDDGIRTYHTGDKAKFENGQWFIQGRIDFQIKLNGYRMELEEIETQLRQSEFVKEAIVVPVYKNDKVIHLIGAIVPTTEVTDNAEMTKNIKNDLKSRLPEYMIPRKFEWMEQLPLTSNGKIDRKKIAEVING

Question: What does the source list for `C[C@H]1CCCC(n2cnc3cc(-c4cc(N(C)CCN(C)C)c(C(N)=O)c5[nH]cnc45)ccc32)C1` (mixture of isomers)?
Answer: IC50 [1]: 25 nM; IC50 [2]: 4.3 nM

Question: What does the source list for `COc1cc(-c2ccc3c(c2)ncn3C2CCCCC2)c2nc[nH]c2c1C(N)=O` [US10301305, Example 88]?
Answer: IC50 [3]: 33 nM; IC50 [1]: 79 nM; IC50 [2]: 26 nM

Question: `CCn1cnc2cc(-c3cc(OCCN(C)C)c(C(N)=O)c4[nH]cnc34)ccc21` [US10301305, Example 198] was tested. Which IC50 [3] did it give?
Answer: 6.8 nM

Question: And the IC50 [1]?
Answer: 73 nM

Question: What about the IC50 [2] of the same molecule?
Answer: 8.3 nM
